Among the test systems are OVCAR-5 ovarian; BT-549 breast; SW-620 colon; SK-MEL-2 melanoma; CAKI-1 renal; NCI-H522 lung.
Holding throughout (experiment): NCI tumour cell line growth inhibition, 48 h

Structures are written as SMILES.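 These data come from cells grown in 96-well plates and exposed to compound for 48 hours at five concentrations. The concentration for 50% growth inhibition is given as GI50. At the TGI there is no net growth.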 Where a SMILES comes first, the peptide text is derived from it. [ ]: non-standard residue; d: D form. NMeY = CN[C@@H](Cc1ccc(O)cc1)C(=O)O; dNMeF = CN[C@H](Cc1ccccc1)C(=O)O; Sar = CNCC(=O)O

Take `CC[C@H](C)[C@@H]1NC(=O)[C@H](Cc2ccc(O)cc2)N(C)C(=O)[C@H](Cc2ccccc2)NC(=O)CN(C)C(=O)[C@@H]2CCCN2C(=O)[C@@H](Cc2ccccc2)N(C)C(=O)[C@H](CC(C)C)NC1=O` (cyclo(F[NMeY]IL[dNMeF]P[Sar])): the GI50 in the assay on OVCAR-5 ovarian was 0.299 µM; with BT-549 breast, 0.407 µM; in the assay on SW-620 colon it was 0.199 µM; in the assay with SK-MEL-2 melanoma, 0.327 µM; in the assay with CAKI-1 renal, 0.805 µM; in the assay with NCI-H522 lung it was 0.287 µM. Also, the TGI was 8.09 µM in the assay on OVCAR-5 ovarian; 4.51 µM with BT-549 breast; 5.32 µM in the assay with SW-620 colon; 1.91 µM in the assay with SK-MEL-2 melanoma; 11.3 µM with CAKI-1 renal; 3.95 µM in the assay on NCI-H522 lung.

On to `CCOC(=O)Cn1c(C)c(/C=N/NC(=O)c2cc3c(ccc4ccccc43)o2)c2ccccc21`, for which the GI50 with OVCAR-5 ovarian is 0.872 µM; in the assay with BT-549 breast, 0.853 µM; in the assay on SW-620 colon, 0.48 µM; in the assay on SK-MEL-2 melanoma, 0.77 µM; with CAKI-1 renal, 0.575 µM; with NCI-H522 lung it was 0.399 µM. For the same molecule, the TGI in the assay with OVCAR-5 ovarian came out at 10.7 µM; with BT-549 breast it was 5.13 µM; with SW-620 colon, 11.4 µM; in the assay with SK-MEL-2 melanoma, 7.05 µM; with CAKI-1 renal, 2.37 µM; in the assay on NCI-H522 lung, 6.93 µM.

With `COc1cccc(-n2ncc3c(N/N=C/c4ccc(S(C)(=O)=O)cc4)ncnc32)c1`, the GI50 in the assay on OVCAR-5 ovarian is above 25 µM; in the assay with BT-549 breast it was 13.5 µM; in the assay on SW-620 colon, above 25 µM; with SK-MEL-2 melanoma it was 9.94 µM; in the assay on CAKI-1 renal, 4.81 µM; in the assay on NCI-H522 lung it was 6.78 µM. Further, the TGI in the assay with OVCAR-5 ovarian is above 25 µM; in the assay on BT-549 breast, above 25 µM; in the assay with SW-620 colon, above 25 µM; with SK-MEL-2 melanoma it was above 25 µM; with CAKI-1 renal, above 25 µM; with NCI-H522 lung, 20.1 µM.

In the case of `COc1ccc2c(c1)sc1nc(-c3ccccc3)c(-c3ccc(O)c(OC)c3)n12`, the GI50 is 33.7 µM with OVCAR-5 ovarian; 17.5 µM in the assay on BT-549 breast; 5.15 µM with SW-620 colon; 21.3 µM with SK-MEL-2 melanoma; 8.54 µM in the assay on CAKI-1 renal; 15 µM in the assay on NCI-H522 lung. The TGI in the assay on OVCAR-5 ovarian, in the assay on BT-549 breast, with SW-620 colon, in the assay on SK-MEL-2 melanoma, in the assay on CAKI-1 renal and in the assay with NCI-H522 lung was above 100 µM in each case.

On to `CN(C)C(=O)c1cc2cnc(Nc3ccc(-c4csc5c(=O)cc(N6CCNCC6)oc45)cc3)nc2n1C1CCCC1`, for which the GI50 was 0.491 µM with OVCAR-5 ovarian; 1.35 µM with BT-549 breast; 0.418 µM with SW-620 colon; 2.09 µM with SK-MEL-2 melanoma; 0.819 µM in the assay on CAKI-1 renal; 0.473 µM in the assay on NCI-H522 lung. The TGI in the assay with OVCAR-5 ovarian was determined as 5.11 µM; with BT-549 breast, 3.15 µM; in the assay with SW-620 colon, 2.09 µM; with SK-MEL-2 melanoma, 7.14 µM; with CAKI-1 renal, 12.9 µM; in the assay on NCI-H522 lung, 2.55 µM.

As to `Cc1cc2c3ccccc3ccc2[n+]2ccccc12`, the GI50 is 30.3 µM in the assay with OVCAR-5 ovarian; 1.4 µM in the assay with BT-549 breast; 2.99 µM with SW-620 colon; 6.26 µM in the assay with SK-MEL-2 melanoma; above 28 µM with CAKI-1 renal; 2.6 µM in the assay with NCI-H522 lung. Further, the TGI with OVCAR-5 ovarian was above 100 µM; in the assay on BT-549 breast it was 7.77 µM; in the assay on SW-620 colon, 32.8 µM; in the assay on SK-MEL-2 melanoma, 22.7 µM; in the assay with CAKI-1 renal it was above 100 µM; with NCI-H522 lung it was 13.1 µM.

`COC(=O)c1ccc2c(c1)C(=O)c1c-2n(CCCN)c(=O)c2cc([N+](=O)[O-])ccc12`: the GI50 in the assay on OVCAR-5 ovarian is 0.139 µM; in the assay on BT-549 breast it was 0.265 µM; with SW-620 colon, below 0.01 µM; in the assay on CAKI-1 renal, below 0.01 µM; with NCI-H522 lung it was below 0.0306 µM. The TGI came to 0.661 µM in the assay with OVCAR-5 ovarian; 1.77 µM with BT-549 breast; 1.27 µM in the assay on SW-620 colon; 0.519 µM with SK-MEL-2 melanoma; 1.36 µM in the assay on CAKI-1 renal; 0.588 µM in the assay with NCI-H522 lung.

As to `CC(=O)OC1CCC2(C)C(CCC3C4CC=C(C(C)=O)C4(C)OC(=O)CC32)C1` (configuration not stated), the GI50 in the assay with OVCAR-5 ovarian was 2.75 µM; with BT-549 breast it was 1.58 µM; in the assay on SW-620 colon, 1.52 µM; with SK-MEL-2 melanoma, 2.91 µM; in the assay on CAKI-1 renal, 2.54 µM; with NCI-H522 lung, 1.22 µM. Further, the TGI with OVCAR-5 ovarian worked out at 7.63 µM; in the assay with BT-549 breast it was 3.08 µM; with SW-620 colon, 3.43 µM; in the assay on SK-MEL-2 melanoma it was 8.42 µM; with CAKI-1 renal, 9 µM; with NCI-H522 lung it was 2.64 µM.

With `C=CC(=O)N1CCC([C@@H]2CCNc3c(C(N)=O)c(-c4ccc(Oc5ccccc5)cc4)nn32)CC1`, the GI50 with OVCAR-5 ovarian is 22.2 µM; in the assay with BT-549 breast it was 11.9 µM; in the assay with SW-620 colon, 19.2 µM; with SK-MEL-2 melanoma it was 18.2 µM; in the assay on CAKI-1 renal, 10.4 µM; with NCI-H522 lung it was 3.06 µM. The TGI in the assay on OVCAR-5 ovarian is above 100 µM; in the assay on BT-549 breast it was 31 µM; in the assay on SW-620 colon it was 46.1 µM; in the assay on SK-MEL-2 melanoma, 40 µM; with CAKI-1 renal it was 44.7 µM; with NCI-H522 lung, 20.3 µM.

The values above are taken from PubChem BioAssay (NCI).
